Measured values: PubChem BioAssay AID330 (DTP/NCI, 2004)
“And” between values parts separate entries of the source, which are not always exact repeats. Equal values may be shown once. Inconclusive results and toxic doses are left out.

Test system: P388 leukemia ip, CD2F1 mice, survival T/C
Experiment: NCI In Vivo Anticancer Drug Screen. Data for tumor model P388 Leukemia (intraperitoneal) in CD2F1 (CDF1) mice
Conditions: endpoint: median survival time, higher = longer survival
Summary of the method: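 Mice carrying the transplanted tumor received test compound or vehicle. Survival was recorded in each group, and the value is the treated-group measurement divided by that of the vehicle-treated control group.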

[1] = dose: 50.0 mg/kg/injection, schedule: Q01DX005 (ip), vehicle: saline with Tween-80
[2] = dose: 100.0 mg/kg/injection, schedule: Q01DX005 (ip), vehicle: saline with Tween-80
[3] = dose: 200.0 mg/kg/injection, schedule: Q01DX005 (ip), vehicle: saline with Tween-80
[4] = dose: 25.0 mg/kg/injection, schedule: Q01DX005 (ip), vehicle: Klucel (hydroxypropylcellulose) (HPC)
[5] = dose: 50.0 mg/kg/injection, schedule: Q01DX005 (ip), vehicle: Klucel (hydroxypropylcellulose) (HPC)
[6] = dose: 6.25 mg/kg/injection, schedule: Q01DX005 (ip), vehicle: saline with Tween-80
[7] = dose: 12.5 mg/kg/injection, schedule: Q01DX005 (ip), vehicle: saline with Tween-80
[8] = dose: 50.0 mg/kg/injection, schedule: Q01DX009 (ip), vehicle: saline with Tween-80
[9] = dose: 60.0 mg/kg/injection, schedule: Q01DX005 (ip), vehicle: saline with Tween-80
[10] = dose: 120.0 mg/kg/injection, schedule: Q01DX005 (ip), vehicle: saline with Tween-80
[11] = dose: 240.0 mg/kg/injection, schedule: Q01DX005 (ip), vehicle: saline with Tween-80

Compound: COc1cc2c(cc1C[N+](C)(C)CSc1ccccc1)-c1ccccc1CC2
- T/C (dose: 1.25 mg/kg/injection, schedule: Q01DX005 (ip), vehicle: DMSO): 108 % of control
- T/C (dose: 2.5 mg/kg/injection, schedule: Q01DX005 (ip), vehicle: DMSO): 101 % of control
- T/C (dose: 5.0 mg/kg/injection, schedule: Q01DX005 (ip), vehicle: DMSO): 105 % of control

Compound: CC(C)N[P+](c1ccccc1)(c1ccccc1)c1ccccc1
- T/C (dose: 25.0 mg/kg/injection, schedule: Q04DX003 (ip), vehicle: saline): 96 % of control

Compound: CC1=C/C(=C(\c2cc(C)c(O)c(C(=O)O)c2)c2c(Cl)cccc2Cl)C=C(C(=O)O)C1=O
- T/C [1]: 103 % of control
- T/C [2]: 100 % of control
- T/C [3]: 100 % of control

Compound: N#CCCN(C(=S)Nc1ccc(F)cc1)N1CCCCCC1
- T/C (dose: 100.0 mg/kg/injection, schedule: Q04DX003 (ip), vehicle: saline): 100 % of control
- T/C (dose: 200.0 mg/kg/injection, schedule: Q04DX003 (ip), vehicle: saline): 107 % of control
- T/C (dose: 400.0 mg/kg/injection, schedule: Q04DX003 (ip), vehicle: saline): 98 % of control

Compound: CC1(c2cccc[n+]2Cc2ccc(Cl)c3ccccc23)OCCO1
- T/C (dose: 12.5 mg/kg/injection, schedule: Q01DX009 (ip), vehicle: saline): 101 % of control
- T/C (dose: 25.0 mg/kg/injection, schedule: Q01DX009 (ip), vehicle: saline): 101 % of control

Compound: O=C1/C(=N\O)Cc2cc(Cl)ccc21
- T/C (dose: 12.0 mg/kg/injection, schedule: Q01DX005 (ip), vehicle: Klucel (hydroxypropylcellulose) (HPC)): 101 % of control
- T/C [4]: 111 % of control
- T/C [5]: 101 % of control and 97 % of control

Compound: CCC[CH2][Ge]([CH2]CCC)([CH2]CCC)[S][Ge]([CH2]CCC)([CH2]CCC)[CH2]CCC
- T/C (dose: 50.0 mg/kg/injection, schedule: Q01DX009 (ip), vehicle: saline): 91 % of control
- T/C (dose: 100.0 mg/kg/injection, schedule: Q01DX009 (ip), vehicle: saline): 92 % of control
- T/C (dose: 200.0 mg/kg/injection, schedule: Q01DX009 (ip), vehicle: saline): 97 % of control

Compound: OCC1OC(/C(N=Nc2ccccc2)=N\Nc2ccccc2)C(O)C1O (stereo not given)
- T/C [6]: 99 % of control
- T/C [7]: 89 % of control
- T/C [3]: 97 % of control

Compound: O=C1CSC(c2ccc(Cl)cc2)N1c1ccc(N2C(=O)CSC2c2ccc(Cl)cc2)cc1 (stereo not given)
- T/C (dose: 100.0 mg/kg/injection, schedule: Q01DX001 (ip), vehicle: saline with Tween-80): 94 % of control
- T/C (dose: 200.0 mg/kg/injection, schedule: Q01DX001 (ip), vehicle: saline with Tween-80): 91 % of control
- T/C (dose: 400.0 mg/kg/injection, schedule: Q01DX001 (ip), vehicle: saline with Tween-80): 91 % of control

Compound: CN1CC[As+](Cc2ccccc2)(c2ccccc2)CC1
- T/C (dose: 100.0 mg/kg/injection, schedule: Q01DX001 (ip), vehicle: saline): 87 % of control
- T/C (dose: 200.0 mg/kg/injection, schedule: Q01DX001 (ip), vehicle: saline): 102 % of control
- T/C (dose: 400.0 mg/kg/injection, schedule: Q01DX001 (ip), vehicle: saline): 104 % of control

Compound: COC1=C(C)C2CC(OC)OC3CC4CCCCC4(C)C(C1=O)C32C (stereo not given)
- T/C [4]: 105 % of control
- T/C [5]: 99 % of control
- T/C (dose: 100.0 mg/kg/injection, schedule: Q01DX005 (ip), vehicle: Klucel (hydroxypropylcellulose) (HPC)): 92 % of control

Compound: CN(C)c1ccc(C2(c3ccc(N(C)C)cc3)NNC(=O)c3cc(N(C)C)ccc32)cc1
- T/C (dose: 1.5 mg/kg/injection, schedule: Q01DX005 (ip), vehicle: saline): 100 % of control
- T/C (dose: 3.0 mg/kg/injection, schedule: Q01DX005 (ip), vehicle: saline): 93 % of control
- T/C (dose: 6.0 mg/kg/injection, schedule: Q01DX005 (ip), vehicle: saline): 95 % of control
- T/C [6]: 92 % of control

Compound: CC(C)c1ccc(C(CC(=O)c2ccccc2)C(C(=O)O)c2ccc([N+](=O)[O-])cc2)cc1 (stereo not given)
- T/C (dose: 50.0 mg/kg/injection, schedule: Q01DX009 (ip), vehicle: Klucel (hydroxypropylcellulose) (HPC)): 105 % of control
- T/C (dose: 100.0 mg/kg/injection, schedule: Q01DX009 (ip), vehicle: Klucel (hydroxypropylcellulose) (HPC)): 103 % of control
- T/C (dose: 200.0 mg/kg/injection, schedule: Q01DX009 (ip), vehicle: Klucel (hydroxypropylcellulose) (HPC)): 104 % of control

Compound: CCN(CC)CCC(CNc1c2ccc(Cl)cc2nc2ccc(OC)cc12)c1ccccc1 (stereo not given)
- T/C [7]: 98 % of control
- T/C (dose: 25.0 mg/kg/injection, schedule: Q01DX005 (ip), vehicle: saline with Tween-80): 100 % of control
- T/C [1]: 108 % of control and 115 % of control

Compound: CC(C)(C)N=C(CCN1CCCCC1)Nc1ccccc1Cl
- T/C [8]: 116 % of control
- T/C (dose: 100.0 mg/kg/injection, schedule: Q01DX009 (ip), vehicle: saline with Tween-80): 106 % of control
- T/C (dose: 200.0 mg/kg/injection, schedule: Q01DX009 (ip), vehicle: saline with Tween-80): 102 % of control

Compound: O=S(=O)(Nc1ccccc1Cl)c1ccc(F)cc1
- T/C [9]: 96 % of control
- T/C [10]: 104 % of control
- T/C [11]: 100 % of control

Compound: COc1ccc(C(=O)/C=C/c2c[nH]c3ccccc23)c(O)c1
- T/C (dose: 15.0 mg/kg/injection, schedule: Q01DX005 (ip), vehicle: saline with Tween-80): 96 % of control
- T/C (dose: 30.0 mg/kg/injection, schedule: Q01DX005 (ip), vehicle: saline with Tween-80): 96 % of control
- T/C [9]: 96 % of control
- T/C [10]: 92 % of control
- T/C [11]: 96 % of control

Compound: O=P(c1ccccc1)(c1ccccc1)c1ccccc1.O=P(c1ccccc1)(c1ccccc1)c1ccccc1.O=S(=O)(O)O.[Fe]
- T/C (dose: 100.0 mg/kg/injection, schedule: Q04DX003 (ip), vehicle: Klucel (hydroxypropylcellulose) (HPC)): 93 % of control
- T/C (dose: 200.0 mg/kg/injection, schedule: Q04DX003 (ip), vehicle: Klucel (hydroxypropylcellulose) (HPC)): 89 % of control

Compound: C/C(=N\NC(=S)N1CCC(N2CCCCC2)CC1)c1ccccn1
- T/C [6]: 112 % of control
- T/C [7]: 113 % of control

Compound: CCC1=C[C@@H]2C[C@](C(=O)OC)(c3cc4c(cc3OC)N(C)[C@H]3[C@@](O)(C(=O)NC)[C@H](OC(C)=O)[C@]5(CC)C=CCN6CC[C@]43[C@@H]65)c3[nH]c4ccccc4c3CCN(C1)[C@@H]2O
- T/C (dose: 0.39 mg/kg/injection, schedule: Q01DX001 (ip), vehicle: water): 123 % of control
- T/C (dose: 1.56 mg/kg/injection, schedule: Q01DX001 (ip), vehicle: water): 151 % of control
- T/C (dose: 3.13 mg/kg/injection, schedule: Q01DX001 (ip), vehicle: water): 152 % of control and 158 % of control

Compound: COc1ccc(-c2n(O)c(C)c(C)[n+]2[O-])cc1
- T/C (dose: 12.5 mg/kg/injection, schedule: Q01DX009 (ip), vehicle: saline with Tween-80): 101 % of control
- T/C (dose: 25.0 mg/kg/injection, schedule: Q01DX009 (ip), vehicle: saline with Tween-80): 100 % of control
- T/C [8]: 102 % of control and 92 % of control

Compound: CC(=O)c1cccc(NC2C(N)C(NC(=O)N(C)C)(C(C)O)C(C)(O)C2(O)COC(=O)c2c(C)cccc2O)c1 (stereo not given)
- T/C (dose: 0.5 mg/kg/injection, schedule: Q01DX009 (ip), vehicle: other): 86 % of control
- T/C (dose: 1.0 mg/kg/injection, schedule: Q01DX009 (ip), vehicle: other): 153 % of control
- T/C (dose: 1.5 mg/kg/injection, schedule: Q01DX009 (ip), vehicle: acid diluted with saline): 86 % of control

Compound: S=C1CCCCCN1
- T/C (dose: 12.5 mg/kg/injection, schedule: Q01DX005 (ip), vehicle: Klucel (hydroxypropylcellulose) (HPC)): 107 % of control
- T/C [4]: 100 % of control
- T/C [5]: 103 % of control and 104 % of control

Compound: CC(C1CC2(C)OC2(CO)C(=O)O1)C1CCC2C3CC4OC45C(O)C4OC4C(=O)C5(C)C3CCC12C (stereo not given)
- T/C (dose: 5.0 mg/kg/injection, schedule: Q01DX005 (ip), vehicle: Klucel (hydroxypropylcellulose) (HPC)): 96 % of control
- T/C (dose: 10.0 mg/kg/injection, schedule: Q01DX005 (ip), vehicle: Klucel (hydroxypropylcellulose) (HPC)): 100 % of control
- T/C (dose: 20.0 mg/kg/injection, schedule: Q01DX005 (ip), vehicle: Klucel (hydroxypropylcellulose) (HPC)): 96 % of control
- T/C (dose: 40.0 mg/kg/injection, schedule: Q01DX005 (ip), vehicle: Klucel (hydroxypropylcellulose) (HPC)): 92 % of control
- T/C (dose: 80.0 mg/kg/injection, schedule: Q01DX005 (ip), vehicle: Klucel (hydroxypropylcellulose) (HPC)): 89 % of control

Compound: COc1cc2c(Cl)ncnc2c(OC)c1OC
- T/C [1]: 106 % of control
- T/C [2]: 106 % of control
- T/C [3]: 109 % of control
